Measured values reported in patent publication US20250304600A1, “PHARMACEUTICAL COMPOUNDS AND COMPOSITIONS AS c-KIT KINASE INHIBITORS” (Enanta Pharmaceuticals, Inc., priority 2023, published 2025).

Columns and labels:
[1] = target: T1, Recombinant human c-KIT kinase (Homo sapiens, UniProt P10721); assay: c-KIT kinase chemiluminescence assay (ADP-Glo); type: biochemical; conditions: ATP 50 μM
T1 construct: purchased Promega V4498
Procedure: The c-KIT Kinase Enzyme System (V4498) and ADP-Glo™ Kinase Assay kit (V6930) were purchased from Promega (Madison, WI). DMSO (D2650) was purchased from Sigma-Aldrich (Burlington, MA).
c-KIT Kinase Chemiluminescence Assay:
Kinase Reaction: The kinase assay was based on the recommended protocol by c-KIT Kinase Enzyme System from Promega. Recombinant human c-KIT kinase in 3 μL of assay buffer (40 mM Tris pH 7.5, 20 mM MgCl2, 0.1 mg/mL BSA and 50 μM DTT) was added to the test or high control wells and 3 μL of assay buffer was added to the low control wells. The microplate was centrifuged at 800 rotations per minute (rpm) for 60 s and incubated at room temperature (RT) for 30 min. Next, 2 μL of buffered ATP and polyEY substrate solution was added to all wells. The microplate was centrifuged at 800 rpm for 60 s and incubated at RT for 2 h.
ADP detection with ADP-Glo™ Kinase Assay: After the kinase reaction incubation, 5 μL of ADP-Glo™ reagent was added to all wells. The microplate was centrifuged at 800 rpm for 60 s and incubated at RT for 40 min. Ten microliter (10 μL) of Kinase Detection Reagent (Luciferin-Luciferase system) was then added to all wells. The microplate was centrifuged at 800 rpm for 60 s and incubated at RT for 60 min. Kinase activity was measured as an increase in luminescence at RT in an Envision plate reader equipped with 560 nm filters and operating in endpoint mode.
Data Analysis: Endpoint chemiluminescence from high and low control wells were used to calculate normalized c-KIT activity at various concentrations of test compounds. The normalized activities were fitted to inhibitor-versus-normalized response fit in GraphPad Prism 7 to determine half-maximal inhibitory concentration (IC50) and hill coefficient values (H).
Where I is the inhibitor concentration and H is the Hill coefficient.

[2] = test system: M-07e cells which endogenously express human c-KIT; assay: M-07e cellular assay: SCF-mediated cell proliferation (CellTiter Glo); type: cell-based; conditions: 72 h, SCF-mediated proliferation of M-07e cells
Procedure: M-07e cells (Creative Bioarray, CSC-C0249) which endogenously express human c-KIT were used to evaluate the effect of compounds on stem cell factor (SCF)-mediated cell proliferation. M-07e cells were cultured in growth media (RPMI+10% FBS+1% penicillin/streptomycin+10 ng/mL GM-CSF) at 5E5-1.5E6 cells/mL, replenishing media every 3-4 days. 1.5E4 cells were seeded per well in 384 well tissue culture treated plates in […] assay media (RPMI+10% FBS+1% penicillin/streptomycin) without growth factor stimulation and incubated at 37° C. in a CO2 humidity-controlled incubator. Twenty-four hours later, three-fold serially diluted test compounds in media containing SCF (at the previously determined EC90) were added to the plated M-07e cells and incubated for an additional 72 hours. Cell viability was determined by adding 25 μL CellTiter Glo (Promega) to the cells and the luminescence was measured using a Perkin Elmer Envision plate reader. The EC50 was determined using GraphPad Prism. Percent cell growth was determined after normalizing the curve to the mean RLU high control (no compound control wells) at 100% and the mean RLU low control (no SCF control wells) at 0%.

T1 sequence (P10721 544-976 limits assumed): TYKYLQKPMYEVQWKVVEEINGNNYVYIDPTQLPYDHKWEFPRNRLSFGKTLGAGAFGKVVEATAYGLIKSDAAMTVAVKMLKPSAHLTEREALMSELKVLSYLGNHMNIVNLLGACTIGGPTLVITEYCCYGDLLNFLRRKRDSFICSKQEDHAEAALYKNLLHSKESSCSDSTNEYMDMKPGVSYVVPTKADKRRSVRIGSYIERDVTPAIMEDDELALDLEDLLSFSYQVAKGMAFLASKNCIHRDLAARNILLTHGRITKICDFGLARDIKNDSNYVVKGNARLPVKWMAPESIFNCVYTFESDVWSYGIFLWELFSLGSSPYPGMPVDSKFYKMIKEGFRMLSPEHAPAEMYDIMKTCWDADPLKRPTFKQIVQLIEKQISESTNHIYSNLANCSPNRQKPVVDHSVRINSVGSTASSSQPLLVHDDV

Row | SMILES | IC50 [1] | EC50 [2]
1 | Cc1ncc(-c2nnn[nH]2)cc1NC(=O)c1cnn2ccc(N3CC4(C3)CC(O)(C(F)F)C4)cc12 [Example 394] | > 1000 nM | > 1000 nM
2 | C#Cc1ccc2c(C(=O)Nc3cc(-c4noc([C@H]5C[C@@H]5F)n4)ccc3C)cnn2c1 [Example 106] | – | < 100 nM
3 | Cc1nc(N)nc(C)c1-c1ccn2ncc(C(=O)Nc3cc(-c4noc(C5CN(C(=O)OC(C)(C)C)C5)n4)sc3C)c2c1 [Example 369] | > 1000 nM | –
4 | Cc1ncc(-c2nnn(C[C@@H](O)C(F)F)n2)cc1NC(=O)c1cnn2ccc(N3CC4(C3)CC(O)(C(F)F)C4)cc12 [Example 379] | 100 to 1000 nM | 100 to 1000 nM
5 | Cc1ncc(-c2noc(C3C[C@@H]3F)n2)cc1NC(=O)c1cnn2ccc(-c3cn(C[C@H](O)C(C)(C)O)nc3C3CC3)cc12 (stereo partly drawn) [Example 406] | < 100 nM | < 100 nM
6 | Cc1ccc(-c2noc([C@H]3C[C@@H]3F)n2)cc1NC(=O)c1cnc(N2CC(C(=O)O)C2)s1 [Example 98-4] | – | > 1000 nM
7 | Cc1ccc(-c2noc([C@H]3C[C@@H]3F)n2)cc1NC(=O)c1ccc(N)nc1 [Example 397] | > 1000 nM | > 1000 nM
8 | Cc1ccc(-c2noc([C@H]3C[C@@H]3F)n2)cc1NC(=O)c1cnc2cccnn12 [Example 16] | > 1000 nM | –
9 | Cc1ncc(-c2noc([C@H]3C[C@@H]3C(F)F)n2)cc1NC(=O)c1cnn2ccc(-c3c(C)nc(N)nc3C)cc12 [Example 391] | > 1000 nM | > 1000 nM
10 | Cc1cc(F)c(-c2noc(C3CC(OC(F)F)C3)n2)cc1NC(=O)c1cnn2ccc(N3CC4(COC4)C3)cc12 (stereo not drawn) [Example 281-58] | 100 to 1000 nM | 100 to 1000 nM
11 | Cc1ccc(-c2noc([C@H]3C[C@@H]3F)n2)cc1NC(=O)c1cnn2cc(-c3cn(C(F)F)nn3)ccc12 [Example 107] | – | < 100 nM
12 | Cc1ccc(-c2noc(C3C[C@@H]3C(F)F)n2)cc1NC(=O)c1ccc(N)nc1 (stereo partly drawn) [Example 400] | > 1000 nM | > 1000 nM
13 | Cc1nc(N)nc(C)c1-c1ccn2ncc(C(=O)Nc3cc(-c4noc([C@H]5C[C@@H]5F)n4)sc3C)c2c1 [Example 370] | > 1000 nM | –
14 | Cc1ncc(-c2nnn(C3CCC(F)(F)CC3)n2)cc1NC(=O)c1cnn2ccc(N3CC4(C3)CC(O)(C(F)F)C4)cc12 [Example 385] | < 100 nM | < 100 nM
15 | Cc1ncc(-c2nnn(CCO)n2)cc1NC(=O)c1cnn2ccc(N3CC4(C3)CC(O)(C(F)F)C4)cc12 [Example 387] | > 1000 nM | > 1000 nM
16 | Cc1ncc(-c2nnn(C3CC3)n2)cc1NC(=O)c1cnn2ccc(N3CC4(C3)CC(O)(C(F)F)C4)cc12 [Example 403] | 100 to 1000 nM | < 100 nM
17 | Cc1ncc(-c2nnn(CC(C)(C)C#N)n2)cc1NC(=O)c1cnn2ccc(N3CC4(C3)CC(O)(C(F)F)C4)cc12 [Example 383] | 100 to 1000 nM | 100 to 1000 nM
18 | O=C(Nc1cc(-c2ncc(C3CC3)cn2)ccc1C(F)F)c1cnn2ccc(N3CC4(C3)CC(O)(C(F)F)C4)cc12 [Example 393] | 100 to 1000 nM | < 100 nM
19 | CCn1nnc(-c2cnc(C)c(NC(=O)c3cnn4ccc(N5CC6(C5)CC(O)(C(F)F)C6)cc34)c2)n1 [Example 382] | 100 to 1000 nM | < 100 nM
20 | Cc1ncc(-c2ccn3ncc(C(=O)Nc4cc(-c5noc([C@H]6C[C@@H]6F)n5)ccc4C)c3c2)c(C)n1 [Example 168] | < 100 nM | –
21 | Cc1ncc(-c2noc(C3CC(OC(F)F)C3)n2)cc1NC(=O)c1cnn2ccc(N3CC4(C3)CC(O)(C(F)F)C4)cc12 (stereo not drawn) [Example 281-44] | < 100 nM | < 100 nM
22 | Cc1ncc(-c2noc(C3C[C@@H]3C(F)F)n2)cc1NC(=O)c1ccc(NC(=O)OC(C)(C)C)nc1 (stereo partly drawn) [Example 399] | > 1000 nM | > 1000 nM
23 | Cc1ccc(-c2noc([C@H]3C[C@@H]3F)n2)cc1NC(=O)c1cnc(-c2ccc3nn(CC(C)(C)O)c(C)c3c2)o1 [Example 21a] | < 100 nM | < 100 nM
24 | Cc1ccc(-c2noc(C3C[C@@H]3F)n2)cc1NC(=O)c1ccc(NC(=O)OC(C)(C)C)nc1 (stereo partly drawn) [Example 396] | > 1000 nM | > 1000 nM

Row | SMILES | IC50 [1] | EC50 [2]
25 | Cc1nc(N)nc(C)c1-c1ccn2ncc(C(=O)Nc3cc(-c4noc(C5CN(C(=O)[C@H]6C[C@@H]6F)C5)n4)sc3C)c2c1 [Example 371] | > 1000 nM | –
26 | O=C(Nc1cc(-c2ncc(C3CC3)cn2)ccc1C(F)F)c1cnn2ccc(Br)cc12 [Example 392] | > 1000 nM | > 1000 nM
27 | Cc1ncc(-c2nnc(C3C[C@@H]3F)s2)cc1NC(=O)c1cnn2ccc(N3CC4(C3)CC(O)(C(F)F)C4)cc12 (stereo partly drawn) [Example 407] | 100 to 1000 nM | < 100 nM
28 | COCCn1nc(C)c(-c2ccc3c(C(=O)Nc4cc(-c5noc([C@H]6C[C@@H]6F)n5)ccc4C)cnn3c2)c1C [Example 147] | < 100 nM | < 100 nM
29 | Cc1ncc(-c2noc(C3CC(OC(F)F)C3)n2)cc1NC(=O)c1cnn2ccc(N3CC4(C3)CC(O)(C(F)(F)F)C4)cc12 (stereo not drawn) [Example 281-40] | 100 to 1000 nM | < 100 nM
30 | Cc1ncc(-c2noc([C@H]3C[C@@H]3F)n2)cc1NC(=O)c1cnc(-c2ccc3c(c2)c(C)nn3CC(C)(C)O)o1 [Example 22a] | 100 to 1000 nM | < 100 nM
31 | Cc1nc(N)nc(C)c1-c1ccn2ncc(C(=O)Nc3cc(-c4noc([C@H]5C[C@@H](OC(F)(F)F)C5)n4)sc3C)c2c1 [Example 368] | > 1000 nM | –
32 | Cc1ncc(-c2nnn(C[C@@H](O)C(F)(F)F)n2)cc1NC(=O)c1cnn2ccc(N3CC4(C3)CC(O)(C(F)F)C4)cc12 [Example 381] | 100 to 1000 nM | 100 to 1000 nM
33 | Cc1ccc(-c2nc([C@H]3C[C@@H]3F)cs2)cc1NC(=O)c1cnn2ccc(N3CC4(COC4)C3)cc12 [Example 309] | < 100 nM | –
34 | Cc1ncc(-c2nc([C@H]3C[C@@H]3F)cs2)cc1NC(=O)c1cnn2ccc(N3CC4(C3)CC(O)(C(F)F)C4)cc12 [Example 405] | 100 to 1000 nM | < 100 nM
35 | Cc1ncc(-c2ncc(OC(F)(F)F)cn2)cc1NC(=O)c1cnn2ccc(-c3c(C)nc(N)nc3C)cc12 [Example 364] | > 1000 nM | –
36 | Cc1ncc(-c2noc(N3CC(O)(C(F)(F)F)C3)n2)cc1NC(=O)c1cnn2ccc(N3CC4(C3)CC(O)(C(F)F)C4)cc12 [Example 389] | > 1000 nM | > 1000 nM
37 | Cc1ncc(-c2noc([C@H]3C[C@@H]3F)n2)cc1NC(=O)c1cnc(-c2ccc3nn(CC(C)(C)O)c(C)c3c2)o1 [Example 23a] | 100 to 1000 nM | 100 to 1000 nM
38 | O=C(Nc1cn(-c2ccc(C3CC3)cc2)nc1C(F)F)c1cnn2ccc(N3CC4(COC4)C3)cc12 [compound 373] | – | > 1000 nM
39 | COCCn1nnc(-c2cnc(C)c(NC(=O)c3cnn4ccc(N5CC6(C5)CC(O)(C(F)F)C6)cc34)c2)n1 [Example 386] | 100 to 1000 nM | 100 to 1000 nM
40 | Cc1ncc(-c2nnn(C[C@H](O)C(F)(F)F)n2)cc1NC(=O)c1cnn2ccc(N3CC4(C3)CC(O)(C(F)F)C4)cc12 [Example 380] | 100 to 1000 nM | 100 to 1000 nM
41 | COC(=O)N1CC(c2nc(-c3cc(NC(=O)c4cnn5ccc(N6CC7(C6)CC(O)(C(F)F)C7)cc45)c(C)s3)no2)C1 [Example 388] | < 100 nM | < 100 nM
42 | Cc1nn(-c2ccc(C3CC3)cc2)cc1NC(=O)c1cnn2ccc(N3CC4(COC4)C3)cc12 [Example 372] | > 1000 nM | –
43 | Cc1ncc(-c2nnn(CCC(F)(F)F)n2)cc1NC(=O)c1cnn2ccc(N3CC4(C3)CC(O)(C(F)F)C4)cc12 [Example 384] | 100 to 1000 nM | < 100 nM
44 | Cc1ncc(-c2nnn(C[C@H](O)C(F)F)n2)cc1NC(=O)c1cnn2ccc(N3CC4(C3)CC(O)(C(F)F)C4)cc12 [Example 378] | 100 to 1000 nM | 100 to 1000 nM
45 | Cc1ccc(-c2noc([C@H]3C[C@@H](OC(F)F)C3)n2)cc1NC(=O)c1cnn2ccc(N3CC4(COC4)C3)cc12 [Example 242] | – | < 100 nM
46 | Cc1ccc(-c2noc([C@H]3C[C@@H]3F)n2)cc1NC(=O)c1cnc2n1Cc1ccccc1-2 [Example 99] | < 100 nM | –
47 | Cc1ccc(-c2noc([C@H]3C[C@@H]3F)n2)cc1NC(=O)c1cnc(-c2cnc(N)nc2)o1 [Example 308-64] | > 1000 nM | –
